This experiment has as its system LCLC-103H xenograft tumors. Put plainly: Therapeutic LCLC-103H xenograft model. It is filed as in vivo, SCID mice. The method, then: 5×10^6 LCLC-103H (large cell lung carcinoma) tumor cells (obtained from Leibniz-Institut DSMZ-Deutsche Sammlung von Mikroorganismen and Zellkulturen GmbH (DSMZ)) in 200 μL PBS were injected subcutaneously in the right flank of female SCID mice. Starting 14-21 days after tumor cell inoculation, when the average tumor size was >100-200 mm^3 and distinct tumor growth was observed, a single injection with 1 mg/kg (20 μg/mouse) IgG1-AXL-vcMMAE antibodies (as described in Supplementary Example 1) or control (unconjugated IgG1-b12) was given intraperitoneally (100 μL/mouse). Tumor volume was determined at least two times per week. Tumor volumes (mm^3) were calculated from caliper (PLEXX) measurements as: 0.52×(length)×(width)^2.
Tumor induction was performed by subcutaneous injection of 5×10^6 A431 or LCLC-103H tumor cells (both obtained from Leibniz-Institut—Deutsche Sammlung von Mikroorganismen and Zellkulturen GmbH (DSMZ)) in 200 μL PBS in the right flank of female SCID mice. Treatment was started 14-21 days after tumor cell inoculation, when the average tumor size was >100-200 mm^3 and distinct tumor growth was observed. Mice received a single injection or a total of 4 biweekly intraperitoneal injections with IgG1-AXL-vcMMAE ADCs or control antibody (unconjugated IgG1-b12), as indicated. Tumor volume was determined at least two times per week. Tumor volumes (mm^3) were calculated from caliper (PLEXX) measurements as: 0.52×(length)×(width)2.

For the substance “IgG1-AXL-107-vcMMAE: IgG1-AXL-107 conjugated at cysteines to vcMMAE (mc-vc-PAB linker, MMAE)”, the anti-tumor activity entry by setting is: (Example 9: single injection 1 mg/kg intraperitoneally) “induced tumor regression”; (Example 13: 1 mg/kg intraperitoneally) “induced regression”.
